Measured values published in patent publication EP0068268A1, “Enhancer of anti-tumour effect” (Yamasa Shoyu Kabushiki Kaisha, priority 1981, dated 1983).
Where two headings read alike, the source gives them in different places.

Legend:
Acute toxicity test = experiment: Acute toxicity test; parameters: species or system ICR mice; conditions: mouse, in vivo, ip
Procedure: Various quantities of N -butyryl-3'-dAdo were administered intraperitoneally to ICR mice (male, 8-weeks old, 10 mice for each group) in doses of 250 mg to 1,000 mg/kg, and the mice were subjected to observation for a week.

EMT-6 tumors [1] = experiment: Radiosensitizing effect on experimental tumors in mice (cure percentages and TCD50, Experiment 3); type: in vivo, BALB/c-strain female mice; conditions: for TCD50: 100 mg/kg intraperitoneally after 32 MeV electron beam irradiation, control 2400; for Cure number/Number treated (%) / Cure number/Number treated: 100 mg/kg intraperitoneally after irradiation; for Cure number/Number treated (%): cure percentage; for Cure number/Number treated: observation longer than 90 days; for TCD50 (ratio): ratio to control (1.0)
Procedure: EMT-6 tumor cells ([…]) were inoculated intradermally into the right thighs of BALB/c-strain female mice (8 weeks old). When the tumor sizes reached 5.5 to 8.0 mm after inoculation of the tumor cells, irradiation was locally carried out with 1,000 rad to 2,700 rad of 32 MeV electron beam under no anesthesia, and thereafter 3'-dAdo and N^6-butyryl-3'-dAdo, each dissolved in physiological saline solution, were administered intraperitoneally in a dose of 100 mg/kg. After the treatments, observation was continued for longer than 90 days, and the cure percentages were determined for comparison with the control group. [formula] [formula]

EMT-6 tumors [2] = experiment: Enhancement of the effect of anti-tumor agents on experimental tumors in mice (Experiment 5); type: in vivo, BALB/c-strain mice; conditions: 14th day after treatment
Procedure: EMT-6 tumor cells (1 x 10^6) were inoculated intradermally into the right thighs of BALB/c-strain mice (8 weeks old). On the 12th day after inoculation of the tumor cells and thereafter, each chemical in a physiological saline solution was administered intrapenitoneally to each mouse four times a week in the indicated doses for respective agents. The pharmaceutical agents of the present invention were administered one hour after administration of the anti-tumor agents. After commencement of the treatment with pharmaceutical agents, the tumor sizes were measured every other day and compared with those of the control group.

RIF1 tumors = experiment: Radiosensitizing effect on experimental tumors in mice (tumor size after irradiation, Experiment 4); type: in vivo, C3H/Heston-strain female mice; conditions: for Mean tumor diameter (mm): n=7; for Sensitizing effect: relative to irradiation alone
Procedure: RIF1 tumor cells ([…]) were inoculated intradermally into the right thighs of C3H/Heston-strain female mice (8 weeks old). When the tumor sizes reached 6.0 to 10.0 mm after inoculation of the tumor cells, irradiation was carried out with 2,500 rad/min. of an electron beam, and thereafter N^6-acetyl-3'-dAdo, N^6-butyryl-3'-dAdo, N^6-hexanoyl-3'-dAdo, and N - octanoyl-3'-dAdo, each dissolved in physiological saline solution, were administered intraperitoneally in a dose of 100 mg/kg. After the treatments, the tumor sizes in terms of diameters in three-axial directions were measured on the 10th day and the 20th day (9th day and the 21st day only in case of N^6-butyryl-3'-dAdo).

EMT-6 tumors [3] = experiment: Radiosensitizing effect on experimental tumor in mice (tumor size after local irradiation, Experiment 2); type: in vivo, BALB/c-strain female mice; conditions: for Mean tumor diameter (mm): 1,500 rad 32 MeV electron beam, n = 9; for Sensitizing effect: diameter ratio with agent / diameter ratio with irradiation alone
Procedure: EMT-6 tumor cells (2 x 10^5) were inoculated intradermally into the right thighs of BALB/c-strain female mice (8 weeks old, 6 or more mice for each group). When the tumor size reached 5.5 to 7.5 mm in diameter after inoculation of the tumor cells, local irradiation with a 32 MeV electron beam was carried out at 1,500 rad under no anesthesia and thereafter N^6-butyryl-3'-dAdo dissolved in physiological saline solution, was administered intraperitoneally to each mouse in 100 mg/kg. On the 9th day and 20th day after these treatments, t tumor sizes were measured in tri-dimensional diameters, and compared with the control group with respect to the following items: [formula] [formula] The results are shown in Table 2, in which "cure" means that the tumors completely vanished during the observation period.

[4] = test system: Chinese hamster-HA-1 cells; experiment: Radiosensitizing effect on the tumor cells in culture (PLDR inhibition, colony forming ability after X-rays); type: cell-based
Procedure: Cells under stationary phase, prepared by planting 2 x 10^5 cells/well of Chinese hamster-HA-1 cells in a multi-well dish and exchanging cultural medium every day starting on the third day and thereafter were irradiated with 1,000 R of X-rays. Immediately after radiation, N6-butyryl-3'-dAdo in Hanks' balanced salt solution were administered. Then, after elapse of various times, the cells were taken off with trypsin, and a suitable number of cells were transferred into petri dishes for testing colony forming ability and plating efficiencies. The percentages of survival were calculated with corrections by the plating efficiencies with the pharmaceutical agents alone.

[5] = 10th day after treatment, 2500 rad, then 100 mg/kg intraperitoneally
[6] = 20th day after treatment, 2500 rad, then 100 mg/kg intraperitoneally
[7] = FT-207 100mg/kg x 7 plus enhancer 50mg/kg x 7
[8] = 20th day after treatment, but 21st day for this compound
[9] = column head 10th day after treatment, but 9th day for this compound

In the case of `Nc1ncnc2c1ncn2[C@@H]1O[C@H](CO)C[C@H]1O` [3'-dAdo, 3'-deoxyadenosine, reference compound], the LD50 at 168 h (Acute toxicity test; intraperitoneally, ICR mice male, observation for a week, read-out: LD50) is reported as 280 mg/kg, the TCD50 (EMT-6 tumors [1]) is reported as 1600 and the “Cure number/Number treated (%)” value (EMT-6 tumors [1]; 1,000 rad) is reported as 17%. For the same compound, the “Cure number/Number treated” value (EMT-6 tumors [1]; 1,000 rad) was 3/18, the “Cure number/Number treated (%)” value (EMT-6 tumors [1]; 1,500 rad) was 48% and the “Cure number/Number treated” value (EMT-6 tumors [1]; 1,500 rad) was 14/29. For the same compound, the “Cure number/Number treated (%)” value (EMT-6 tumors [1]; 2,100 rad) was 79%, the “Cure number/Number treated” value (EMT-6 tumors [1]; 2,100 rad) was 11/14 and the “Cure number/Number treated (%)” value (EMT-6 tumors [1]; 2,700 rad) was 67%. The “Cure number/Number treated” value (EMT-6 tumors [1]; 2,700 rad) was 10/15 and the “TCD50 (ratio)” value (EMT-6 tumors [1]) was 0.67.

For `O=c1[nH]c(=O)n(C2CCCO2)cc1F` (stereo not drawn) [FT-207, 1-(2-tetrahydrofuryl)-5-fluorouracil, reference compound], the “Diameter ratio, value in brackets (relative to control = 1.00)” value (EMT-6 tumors [2]; anti-tumor agent alone, 100mg/kg x 7) was 0.76 and the “Mean tumor diameter (mm)” value (EMT-6 tumors [2]; anti-tumor agent alone, 100mg/kg x 7 intraperitoneally, n = 4) was 7.80±1.64 mm.

With `CC(=O)Nc1ncnc2c1ncn2[C@@H]1O[C@H](CO)C[C@H]1O` [N^6-acetyl-3'-dAdo] the Diameter ratio (RIF1 tumors; [5]) was 1.12±0.06, the “Mean tumor diameter (mm)” value (RIF1 tumors; [5]) was 7.86±0.55 mm and the Sensitizing effect (RIF1 tumors; 10th day after treatment) was 0.95. For the same compound, the Diameter ratio (RIF1 tumors; [6]) was 1.49±0.06, the “Mean tumor diameter (mm)” value (RIF1 tumors; [6]) was 10.39±0.51 mm and the Sensitizing effect (RIF1 tumors; 20th day after treatment) was 0.84.

For `CCCC(=O)Nc1ncnc2c1ncn2[C@@H]1O[C@H](CO)C[C@H]1O` [N^6-butyryl-3'-dAdo], the LD50 at 168 h (Acute toxicity test) was 710 mg/kg, the “Diameter ratio (mm)” value (EMT-6 tumors [2]; [7]) was 0.97±0.23 and the “Diameter ratio, value in brackets (relative to control = 1.00)” value (EMT-6 tumors [2]; [7]) was 0.62. The “Mean tumor diameter (mm)” value (EMT-6 tumors [2]; FT-207 100mg/kg x 7 plus enhancer 50mg/kg x 7 given one hour later, n = 5) was 6.72±1.69 mm, the “Diameter ratio (mm)” value (EMT-6 tumors [2]; enhancer alone, 50mg/kg x 7) was 1.36±0.32 and the “Diameter ratio, value in brackets (relative to control = 1.00)” value (EMT-6 tumors [2]; enhancer alone, 50mg/kg x 7) was 0.87. The “Mean tumor diameter (mm)” value (EMT-6 tumors [2]; enhancer alone, 50mg/kg x 7 intraperitoneally, n = 5) was 9.92±2.45 mm, the Enhancing effect (EMT-6 tumors [2]; ratio in combination / (ratio anti-tumor agent alone x ratio enhancer alone), FT-207 100mg/kg x 7 plus enhancer 50mg/kg x 7) was 0.94 and the TCD50 (EMT-6 tumors [1]) was 1080. For the same compound, the “Cure number/Number treated (%)” value (EMT-6 tumors [1]; 1,000 rad) was 40%, the “Cure number/Number treated” value (EMT-6 tumors [1]; 1,000 rad) was 6/15 and the “Cure number/Number treated (%)” value (EMT-6 tumors [1]; 1,500 rad) was 65%. For the same compound, the “Cure number/Number treated” value (EMT-6 tumors [1]; 1,500 rad) was 13/20, the “Cure number/Number treated (%)” value (EMT-6 tumors [1]; 2,100 rad) was 93% and the “Cure number/Number treated” value (EMT-6 tumors [1]; 2,100 rad) was 14/15. For the same compound, the “Cure number/Number treated (%)” value (EMT-6 tumors [1]; 2,700 rad) was 100%, the “Cure number/Number treated” value (EMT-6 tumors [1]; 2,700 rad) was 16/16 and the “TCD50 (ratio)” value (EMT-6 tumors [1]) was 0.45. For the same compound, the “Mean tumor diameter (mm)” value (EMT-6 tumors [3]; 9 days after treatment, then 100 mg/kg intraperitoneally) was 5.36±1.13 mm, the Diameter ratio (EMT-6 tumors [3]; 9 days after treatment, 1,500 rad, then 100 mg/kg intraperitoneally) was 0.83±0.18 and the Sensitizing effect (EMT-6 tumors [3]; 9 days after treatment) was 0.86. The “Mean tumor diameter (mm)” value (EMT-6 tumors [3]; 20 days after treatment, then 100 mg/kg intraperitoneally) was 0.0±0.0 mm, the Cured cases (EMT-6 tumors [3]; 20 days after treatment, cure = tumors completely vanished during the observation period, 1,500 rad + 100 mg/kg i.p.) was 9/9 and the Sensitizing effect (EMT-6 tumors [3]; 20 days after treatment) was 0.00. For the same compound, the Diameter ratio (RIF1 tumors; [8]) was 1.35±0.08, the “Mean tumor diameter (mm)” value (RIF1 tumors; 20th day after treatment, but 21st day for this compound, 2500 rad, then 100 mg/kg intraperitoneally) was 10.28±0.36 mm and the Sensitizing effect (RIF1 tumors; [8]) was 0.76. For the same compound, the Diameter ratio (RIF1 tumors; [9]) was 0.90±0.08, the “Mean tumor diameter (mm)” value (RIF1 tumors; column head 10th day after treatment, but 9th day for this compound, 2500 rad, then 100 mg/kg intraperitoneally) was 6.71±0.63 mm and the Sensitizing effect (RIF1 tumors; [9]) was 0.76. The “Plating efficiency (%) After 1 hour” value ([4]; 40 µg/ml given immediately after 1,000 R of X-rays, stationary phase cells, 1 hour after irradiation) was 1.4%, the “Plating efficiency (%) After 4 hours” value ([4]; 40 µg/ml given immediately after 1,000 R of X-rays, stationary phase cells, 4 hours after irradiation) was 2.2% and the “Plating efficiency (%) After 7 hours” value ([4]; 40 µg/ml given immediately after 1,000 R of X-rays, stationary phase cells, 7 hours after irradiation) was 2.4%. The “inhibition of repair (PLDR) after irradiation with X-rays” value ([4]; result in words, from Table 1) was “inhibit repair (PLDR)” and the “toxicity, as examined by plating efficiencies” value ([4]; result in words, agent alone) was “Substantially no toxicity was observed”.

In the case of `CCCCCC(=O)Nc1ncnc2c1ncn2[C@@H]1O[C@H](CO)C[C@H]1O` [N^6-hexanoyl-3'-dAdo], the Diameter ratio (RIF1 tumors; [5]) is reported as 1.11±0.05, the “Mean tumor diameter (mm)” value (RIF1 tumors; [5]) is reported as 7.90±0.47 mm and the Sensitizing effect (RIF1 tumors; 10th day after treatment) is reported as 0.94. The Diameter ratio (RIF1 tumors; [6]) was 1.46±0.05, the “Mean tumor diameter (mm)” value (RIF1 tumors; [6]) was 10.37±0.42 mm and the Sensitizing effect (RIF1 tumors; 20th day after treatment) was 0.82.

With `CCCCCCCC(=O)Nc1ncnc2c1ncn2[C@@H]1O[C@H](CO)C[C@H]1O` [N^6-octanoyl-3'-dAdo] the Diameter ratio (RIF1 tumors; [5]) was 1.04±0.04, the “Mean tumor diameter (mm)” value (RIF1 tumors; [5]) was 7.50±0.37 mm and the Sensitizing effect (RIF1 tumors; 10th day after treatment) was 0.88. The Diameter ratio (RIF1 tumors; [6]) was 1.33±0.02, the “Mean tumor diameter (mm)” value (RIF1 tumors; [6]) was 9.61±0.46 mm and the Sensitizing effect (RIF1 tumors; 20th day after treatment) was 0.75.
